# According to patent US20230123334A1, “AMINO LIPID COMPOUND, PREPARATION METHOD THEREFOR, AND APPLICATION THEREOF” (SHENZHEN SHENXIN BIOTECHNOLOGY CO., LTD., priority 2020, published 2023):
# Test system: HEK293 cells
# Assay: Preliminary screening as DNA vectors, GFP transfection of HEK293 cells
# Format: cell-based
# Settings: HEK293 cells; lipid/DOPE liposome with 75 ng plasmid DNA (psin-EGFP-IRES-Puro); number of cells expressing GFP divided by total number of nuclei (Hoechst)
# Outline: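 HEK293 cells in DMEM/10% FBS transfected with 75 ng EGFP plasmid per well complexed with amino lipid/DOPE liposomes in pH 5.6 sodium acetate. Hoechst nuclear stain added 20-24 h post-transfection, then cells cultured another 20-24 h. Confocal imaging gives GFP-positive cells as % of total nuclei.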
row,Compound,Absolute DNA transfection efficiency in HEK293 cells [%]
1,CCCCCCCCCCCCCCCCCCNc1nc(NCCCCCCCCCCCCCCCCCC)nc(NCCCN(C)C)n1 [Compound N18N18D6],0.3
2,CCCCCCCCCCCCCCCCCCNc1nc(NCCCCCCCCCCCCCCCCCC)nc(NCCN(CC)CC)n1 [Compound N18N18D7],0.3
3,CCCCCCCCCCCCCCCCCCNc1nc(NCCCCCCCCCCCCCCCCCC)nc(NCCCN2CCOCC2)n1 [Compound N18N18D8],0.1
4,CCCCCCCCCCCCCCCCCCNc1nc(NCCCCCCCCCCCCCCCCCC)nc(NCCCN2CCN(C)CC2)n1 [Compound N18N18D9],0.0
5,CCCCCCCCCCCCCCCCCCNc1nc(NCCCCCCCCCCCCCCCCCC)nc(NCC2CCN(C)CC2)n1 [Compound N18N18D10],0.0
6,CCCCCCCCCCCCCCSc1nc(NCCN(C)C)nc(SCCCCCCCC)n1 [Compound S8S14D1],8.3
7,CCCCCCCCCCCCCCSc1nc(NCCN2CCOCC2)nc(SCCCCCCCC)n1 [Compound S8S14D2],18.5
8,CCCCCCCCCCCCCCSc1nc(NCCN2CCCC2)nc(SCCCCCCCC)n1 [Compound S8S14D3],13.9
9,CCCCCCCCCCCCCCSc1nc(NCCN2CCCCC2)nc(SCCCCCCCC)n1 [Compound S8S14D4],9.3
10,CCCCCCCCCCCCCCSc1nc(NCCN2CCN(C)CC2)nc(SCCCCCCCC)n1 [Compound S8S14D5],29.9
11,CCCCCCCCCCCCCCSc1nc(NCCCN(C)C)nc(SCCCCCCCC)n1 [Compound S8S14D6],16.2
12,CCCCCCCCCCCCCCSc1nc(NCCN(CC)CC)nc(SCCCCCCCC)n1 [Compound S8S14D7],7.5
13,CCCCCCCCCCCCCCSc1nc(NCCCN2CCOCC2)nc(SCCCCCCCC)n1 [Compound S8S14D8],17.1
14,CCCCCCCCCCCCCCSc1nc(NCCCN2CCN(C)CC2)nc(SCCCCCCCC)n1 [Compound S8S14D9],16.0
15,CCCCCCCCCCCCCCSc1nc(NCC2CCN(C)CC2)nc(SCCCCCCCC)n1 [Compound S8S14D10],41.1
16,CCCCCCCCCCCCCCCSc1nc(NCCN(C)C)nc(SCCCCCCCC)n1 [Compound S8S15D1],8.1
17,CCCCCCCCCCCCCCCSc1nc(NCCN2CCOCC2)nc(SCCCCCCCC)n1 [Compound S8S15D2],10.8
18,CCCCCCCCCCCCCCCSc1nc(NCCN2CCCC2)nc(SCCCCCCCC)n1 [Compound S8S15D3],21.8
19,CCCCCCCCCCCCCCCSc1nc(NCCN2CCCCC2)nc(SCCCCCCCC)n1 [Compound S8S15D4],11.2
20,CCCCCCCCCCCCCCCSc1nc(NCCN2CCN(C)CC2)nc(SCCCCCCCC)n1 [Compound S8S15D5],31.2
21,CCCCCCCCCCCCCCCSc1nc(NCCCN(C)C)nc(SCCCCCCCC)n1 [Compound S8S15D6],24.5

# Test system: HEK293 cells
# Assay: Preliminary screening as mRNA vectors, EGFP mRNA transfection of HEK293 cells
# Format: cell-based
# Settings: HEK293 cells, 96-well plates, EGFP mRNA 50 ng per well; percentage of GFP fluorescent cells relative to total number of cells (Hoechst)
# Outline: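 HEK293 cells in DMEM plus 10% FBS transfected in 96-well format with 50 ng EGFP mRNA per well; Lipofectamine2000 served as positive control. Read-out is the percentage of GFP-fluorescent cells among total cells, counted by Hoechst nuclear stain.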
row,Compound,Absolute mRNA transfection efficiency in HEK293 cells [%]
1,CCCCCCCCCCCCCCCCCCNc1nc(NCCCCCCCCCCCCCCCCCC)nc(NCCCN(C)C)n1 [Compound N18N18D6],4.4
2,CCCCCCCCCCCCCCCCCCNc1nc(NCCCCCCCCCCCCCCCCCC)nc(NCCN(CC)CC)n1 [Compound N18N18D7],0.0
3,CCCCCCCCCCCCCCCCCCNc1nc(NCCCCCCCCCCCCCCCCCC)nc(NCCCN2CCOCC2)n1 [Compound N18N18D8],0.0
4,CCCCCCCCCCCCCCCCCCNc1nc(NCCCCCCCCCCCCCCCCCC)nc(NCCCN2CCN(C)CC2)n1 [Compound N18N18D9],0.0
5,CCCCCCCCCCCCCCCCCCNc1nc(NCCCCCCCCCCCCCCCCCC)nc(NCC2CCN(C)CC2)n1 [Compound N18N18D10],0.0
6,CCCCCCCCCCCCCCSc1nc(NCCN(C)C)nc(SCCCCCCCC)n1 [Compound S8S14D1],0.7
7,CCCCCCCCCCCCCCSc1nc(NCCN2CCOCC2)nc(SCCCCCCCC)n1 [Compound S8S14D2],0.4
8,CCCCCCCCCCCCCCSc1nc(NCCN2CCCC2)nc(SCCCCCCCC)n1 [Compound S8S14D3],3.4
9,CCCCCCCCCCCCCCSc1nc(NCCN2CCCCC2)nc(SCCCCCCCC)n1 [Compound S8S14D4],3.1
10,CCCCCCCCCCCCCCSc1nc(NCCN2CCN(C)CC2)nc(SCCCCCCCC)n1 [Compound S8S14D5],52.7
11,CCCCCCCCCCCCCCSc1nc(NCCCN(C)C)nc(SCCCCCCCC)n1 [Compound S8S14D6],79.5
12,CCCCCCCCCCCCCCSc1nc(NCCN(CC)CC)nc(SCCCCCCCC)n1 [Compound S8S14D7],1.3
13,CCCCCCCCCCCCCCSc1nc(NCCCN2CCOCC2)nc(SCCCCCCCC)n1 [Compound S8S14D8],3.4
14,CCCCCCCCCCCCCCSc1nc(NCCCN2CCN(C)CC2)nc(SCCCCCCCC)n1 [Compound S8S14D9],13.5
15,CCCCCCCCCCCCCCSc1nc(NCC2CCN(C)CC2)nc(SCCCCCCCC)n1 [Compound S8S14D10],60.5
16,CCCCCCCCCCCCCCCSc1nc(NCCN(C)C)nc(SCCCCCCCC)n1 [Compound S8S15D1],0.4
17,CCCCCCCCCCCCCCCSc1nc(NCCN2CCOCC2)nc(SCCCCCCCC)n1 [Compound S8S15D2],0.0
18,CCCCCCCCCCCCCCCSc1nc(NCCN2CCCC2)nc(SCCCCCCCC)n1 [Compound S8S15D3],0.9
19,CCCCCCCCCCCCCCCSc1nc(NCCN2CCCCC2)nc(SCCCCCCCC)n1 [Compound S8S15D4],2.6
20,CCCCCCCCCCCCCCCSc1nc(NCCN2CCN(C)CC2)nc(SCCCCCCCC)n1 [Compound S8S15D5],40.0
21,CCCCCCCCCCCCCCCSc1nc(NCCCN(C)C)nc(SCCCCCCCC)n1 [Compound S8S15D6],45.0
